In patent US10517854B2, “Dosing regiments of celgosivir for the treatment of dengue” (60 Degrees Pharmaceuticals, LLC, priority 2013, dated 2019):
Where “and” joins values, the source holds several entries; their conditions need not be identical. Equal values may be shown once. Entries after “also recorded” stand apart in the source; their conditions may differ. Read-outs that look alike come from different tables or passages of the source.

Legend:
DENV2 [1] = test: Lethal ADE mouse model of viremia; assay type: in vivo
Procedure: To model ADE, mice were injected IP (intraperitoneal) with […] of mouse monoclonal antibody against the (DENV) E protein (4G2 clone) one day prior to infection. (9) For treatment, celgosivir was injected IP once or twice daily for a total of 5 days. Mice were monitored every day till Day 12 post infection. The data were plotted as Kaplan-Meier curves using Prism 5.0 software.
To evaluate the effect of dose and dose schedule, four drug regimens were studied in the ADE viremia model: 10, 25 and 50 mg/kg BID and 100 mg/kg QD (once daily). For the BID schedule, survival increased with increasing dose with survival rates of 13%, 63% and 100% for 10, 25, and 50 mg/kg BID.
Even when treatment was delayed (FIG. 5A), celgosivir (50 mg/kg BID) exerted a protective effect. In this experiment, survival at Day 12 was 100%, 75%, and 50% when treatment was immediate, delayed 24 hr or delayed 48 hr after DENV2 infection, respectively, in the ADE model; by contrast, none (0%) of the sham-treated mice survived past day 5 (FIG. 5B). Viremia, as determined by plaque assay, in celgosivir-treated mice (50 mg/kg BID) was 8.3% of levels in sham-treated mice after only 1 day of dosing. By study day 3, viremia had increased in untreated mice by more than 7-fold.

[2] = cited from earlier work
[3] = Pharmacokinetics mouse studies; settings: in vivo
Procedure: The concentration profile of celgosivir and castanospermine in the mouse after a single IP dose of celgosivir at a dose of 50 mg/kg is illustrated in FIG. 6A. Serum concentrations were measured using a validated LC/MS/MS assay performed. Celgosivir was measurable in serum only up to 1 hr post-dosing.
The castanospermine concentration profile after dosing at 50 mg/kg BID for 5 days was calculated by nonparametric superposition (FIG. 6B). This dosing regimen of celgosivir protected 100% of mice in the lethal ADE dengue infection model.

[4] = tested on: DENV2 strain NGC subgenomic replicon; test: Replicon assay (luciferase, A549 replicon cell line); assay type: cell-based; settings: Dengue virus, A549 replicon cells, 48 hour
Procedure: The DENV subgenomic replicon was derived from the DENV2 strain NGC and consists of a luciferase reporter and a puromycin resistance gene for stable transfection. (7) Only the nonstructural proteins NS1, NS2A, NS2B, NS3, NS4A, NS4B, and NS5 were represented in the replicon construct. Of the nonstructural proteins, only NS1 is known to be glycosylated.
The stably transfected A549 replicon cell line was plated into a 96-well plate in the presence of various concentrations of test compounds and incubated for 48 hour at 37° C. in 5% CO2 incubator. The luciferase activity of the replicon treated with various concentrations of the test compound was measured using EnduRen (Promega) at a 1:1000 dilution followed by incubation for 2 hrs before the luminescence was read using a Tecan plate-reader. The data was plotted against the log transformation of the concentration of the compounds to obtain a dose-response curve to calculate the EC50 value.

[5] = tested on: gastrointestinal α-amylase, sucrase, maltase; settings: cited from earlier work
DENV2 (TSV01 strain) = test: Cell-based flaviviral immunodetection assay (CFI), DENV2; settings: Dengue virus, DENV2, BHK-21, 48 h, DENV2, BHK21 cells
Procedure: BHK21 cells were seeded at 1.3×104 in 96-well plate and incubated overnight at 37° C. in 5% CO2 incubator. Confluent monolayer of BHK21 cells were infected with DENV2 (TSV01 strain) at an MOI (multiplicity of infection) 0.3 in the presence of various concentrations of test compounds and incubated for 1 hour at 37° C. in 5% CO2 incubator. Infected cells were incubated with test compounds for another 48 hours at 37° C. in 5A CO2. Cells were fixed with methanol and mouse monoclonal antibody 4G2 was used to detect DENV E protein, which was quantified using a secondary anti-mouse antibody conjugated with horseradish peroxidase (HRP). Absorbance was read at 450 nm and dose-response curve was plotted accordingly. The 50% effective concentration (EC50), that is, the concentration of the test compound that decreased the level of viral E protein production by 50%, was calculated by nonlinear regression analysis.

EDEM, XBP1, CHOP = test: Host gene products during drug-induced unfolded protein response; assay type: cell-based; settings: data not shown
Source text: The pro-survival products enhance the clearance of misfolded proteins by directing them to the proteosome for degradation.

DENV1 = test: Cell-based flaviviral immunodetection assay (CFI), DENV1; settings: Dengue virus, BHK-21; DENV1, BHK21 cells, 48 hours
DENV2 infected BHK21 = test: Fluorescence microscopy for NS1 in infected BHK21 cells; assay type: cell-based, dengue virus; settings: 20 μM, 24 hr
Procedure: BHK21 cells were infected with DENV2 and treated with 20 μM celgosivir or saline. After 24 hr incubation, cells were stained with nuclear stain diamidino-2-phenylindole (DAPI) or with a MAb against NS1 in conjunction with a secondary antibody conjugated with Alexa-488 (green), then examined by fluorescent microscopy for the presence of NS1, a marker for viral replication.

DENV4 = test: Cell-based flaviviral immunodetection assay (CFI), DENV4; settings: Dengue virus, BHK-21; DENV4, BHK21 cells, 48 hours
DENV2 [6] = settings: cited from earlier work
[7] = humans, cited from earlier work

CCCC(=O)O[C@H]1CN2CC[C@H](O)[C@@H]2[C@@H](O)[C@@H]1O.Cl [Celgosivir, celgosivir]
survival at Day 12 (DENV2 [1]; 10 mg/kg BID for 5 days): 12% and 13% | survival at Day 12 (DENV2 [1]; 25 mg/kg BID for 5 days): 62% and 63% | survival at Day 12 (DENV2 [1]; 50 mg/kg BID for 5 days, immediate treatment): 100% | viremia, of levels in sham-treated mice (DENV2 [1]; 50 mg/kg BID, after 1 day of dosing, plaque assay): 8.3% | viremia, of levels in sham-treated mice (DENV2 [1]; 50 mg/kg BID, study day 3, delayed 24 hr): 26% | viremia, of levels in sham-treated mice (DENV2 [1]; 50 mg/kg BID, study day 3, delayed 48 hr): 69% | viremia, of levels in sham-treated mice (DENV2 [1]; 50 mg/kg BID, study day 3, immediate treatment): 17% | survival at Day 12 (DENV2 [1]; 50 mg/kg BID, treatment delayed 24 hr): 75% | survival at Day 12 (DENV2 [1]; 50 mg/kg BID, treatment delayed 48 hr): 50% | survival (in words) (DENV2 [1]; 100 mg/kg once daily (QD)): no mice survived past day 6; also recorded: none surviving past Day 6 | survival at Day 12 (DENV2 [1]; 100 mg/kg once daily (QD)): 0% | Cmax and AUC versus dose ([2]; humans): increase in proportion to dose | oral clearance ([2]; humans): 12 L/h | terminal half-life ([2]; humans): 18 h | conversion in humans ([2]; only castanospermine detected in plasma): rapidly convert to castanospermine | absorption compared with castanospermine [3]: more rapidly and efficiently absorbed than castanospermine | species detected in plasma after celgosivir [3]: only castanospermine was detected in the plasma | time celgosivir measurable in serum post-dosing ([3]; ip, 50 mg/kg): up to 1 hr | EC50 [4]: 2200 nM | inhibition of gastrointestinal enzymes, comparison [5]: weaker inhibitor than castanospermine | EC50 (DENV2 (TSV01 strain)): 220 nM | apoptotic markers such as CHOP (EDEM, XBP1, CHOP): down-regulated | pro-survival host gene products such as EDEM and XBP1 (EDEM, XBP1, CHOP): upregulation | EC50 (DENV1): 650 ± 160 nM | NS1 / viral replication by immunofluorescence (DENV2 infected BHK21): almost complete suppression of viral replication; also recorded: very low levels of NS1 | EC50 (DENV4): 310 ± 120 nM | reduction of viremia (DENV2 [6]; given at the time of infection): 88% | reduction of viremia (DENV2 [6]; treatment delayed by 24 hours): 55% | maximum tolerated dose (MTD) ([7]; HIV drug trials, for 184 days): 400 mg per day | adverse events [7]: largely gastrointestinal, namely flatulence and diarrhea, of mild to moderate intensity | serious adverse events [7]: No serious adverse events have been reported | serum creatine kinase [7]: Asymptomatic elevations | time to reversal of creatine kinase elevations after discontinuation [7]: ≤ 2 weeks
